# From the NIST ThermoML archive (doi:10.1021/je0600808)
# ± gives the expanded uncertainty stated by the source.
# Assay: xn = mol fraction of the nth substance listed
# Conditions: 101 kPa, Liquid
smiles,measurement,setting,value
CCOC(=O)OCC [diethyl carbonate] + CCCCCO,mass density,"293.15 K, x1 = 0.1016",831.8 ± 1.6 kg/m3
same,viscosity,"293.15 K, x1 = 0.1016",2.879 ± 0.035 mPa·s
same,mass density,"293.15 K, x1 = 0.2056",849.16 ± 1.5 kg/m3
same,viscosity,"293.15 K, x1 = 0.2056",2.155 ± 0.026 mPa·s
same,mass density,"293.15 K, x1 = 0.2991",864.58 ± 1.4 kg/m3
same,viscosity,"293.15 K, x1 = 0.2991",1.735 ± 0.021 mPa·s
same,mass density,"298.15 K, x1 = 0.1016",827.59 ± 1.6 kg/m3
same,viscosity,"298.15 K, x1 = 0.1016",2.522 ± 0.031 mPa·s
same,mass density,"298.15 K, x1 = 0.2056",844.75 ± 1.5 kg/m3
same,viscosity,"298.15 K, x1 = 0.2056",1.907 ± 0.023 mPa·s
same,mass density,"298.15 K, x1 = 0.2991",859.91 ± 1.4 kg/m3
same,viscosity,"298.15 K, x1 = 0.2991",1.549 ± 0.019 mPa·s
same,mass density,"303.15 K, x1 = 0.1016",823.06 ± 1.6 kg/m3
same,viscosity,"303.15 K, x1 = 0.1016",2.206 ± 0.027 mPa·s
same,mass density,"303.15 K, x1 = 0.2056",840.03 ± 1.5 kg/m3
same,viscosity,"303.15 K, x1 = 0.2056",1.69 ± 0.021 mPa·s
same,mass density,"303.15 K, x1 = 0.2991",854.97 ± 1.4 kg/m3
same,viscosity,"303.15 K, x1 = 0.2991",1.386 ± 0.017 mPa·s
same,mass density,"313.15 K, x1 = 0.1016",814.72 ± 1.7 kg/m3
same,viscosity,"313.15 K, x1 = 0.1016",1.723 ± 0.021 mPa·s
same,mass density,"313.15 K, x1 = 0.2056",831.26 ± 1.6 kg/m3
same,viscosity,"313.15 K, x1 = 0.2056",1.351 ± 0.017 mPa·s
same,mass density,"313.15 K, x1 = 0.2991",845.78 ± 1.5 kg/m3
same,viscosity,"313.15 K, x1 = 0.2991",1.132 ± 0.015 mPa·s
same,mass density,"323.15 K, x1 = 0.1016",805.16 ± 1.8 kg/m3
same,viscosity,"323.15 K, x1 = 0.1016",1.383 ± 0.017 mPa·s
same,mass density,"323.15 K, x1 = 0.2056",821.48 ± 1.6 kg/m3
same,viscosity,"323.15 K, x1 = 0.2056",1.109 ± 0.014 mPa·s
same,mass density,"323.15 K, x1 = 0.2991",835.87 ± 1.6 kg/m3
same,viscosity,"323.15 K, x1 = 0.2991",0.939 ± 0.013 mPa·s
same,mass density,"333.15 K, x1 = 0.1016",796.72 ± 1.8 kg/m3
same,viscosity,"333.15 K, x1 = 0.1016",1.122 ± 0.015 mPa·s
same,mass density,"333.15 K, x1 = 0.2056",812.44 ± 1.7 kg/m3
same,viscosity,"333.15 K, x1 = 0.2056",0.918 ± 0.013 mPa·s
same,mass density,"333.15 K, x1 = 0.2991",826.67 ± 1.6 kg/m3
same,viscosity,"333.15 K, x1 = 0.2991",0.79 ± 0.011 mPa·s
same,mass density,"343.15 K, x1 = 0.1016",787.31 ± 1.9 kg/m3
same,viscosity,"343.15 K, x1 = 0.1016",0.919 ± 0.013 mPa·s
same,mass density,"343.15 K, x1 = 0.2056",802.62 ± 1.8 kg/m3
same,viscosity,"343.15 K, x1 = 0.2056",0.766 ± 0.011 mPa·s
same,mass density,"343.15 K, x1 = 0.2991",816.48 ± 1.7 kg/m3
same,viscosity,"343.15 K, x1 = 0.2991",0.67 ± 0.01 mPa·s
same,mass density,"353.15 K, x1 = 0.1016",778.85 ± 1.9 kg/m3
same,viscosity,"353.15 K, x1 = 0.1016",0.764 ± 0.011 mPa·s
same,mass density,"353.15 K, x1 = 0.2056",793.74 ± 1.8 kg/m3
same,viscosity,"353.15 K, x1 = 0.2056",0.65 ± 0.01 mPa·s
same,mass density,"353.15 K, x1 = 0.2991",807.26 ± 1.7 kg/m3
same,viscosity,"353.15 K, x1 = 0.2991",0.576 ± 0.01 mPa·s
same,mass density,"363.15 K, x1 = 0.1016",770.78 ± 2 kg/m3
same,viscosity,"363.15 K, x1 = 0.1016",0.644 ± 0.01 mPa·s
same,mass density,"363.15 K, x1 = 0.2056",785.19 ± 1.9 kg/m3
same,viscosity,"363.15 K, x1 = 0.2056",0.557 ± 0.009 mPa·s
same,mass density,"363.15 K, x1 = 0.2991",798.3 ± 1.8 kg/m3
same,viscosity,"363.15 K, x1 = 0.2991",0.501 ± 0.009 mPa·s
CCOC(=O)OCC [diethyl carbonate] + CCCO,mass density,"293.15 K, x1 = 0.0993",829.06 ± 1.6 kg/m3
same,viscosity,"293.15 K, x1 = 0.0993",1.668 ± 0.02 mPa·s
same,mass density,"293.15 K, x1 = 0.2003",852 ± 1.4 kg/m3
same,viscosity,"293.15 K, x1 = 0.2003",1.347 ± 0.016 mPa·s
same,mass density,"293.15 K, x1 = 0.3011",872.49 ± 1.3 kg/m3
same,viscosity,"293.15 K, x1 = 0.3011",1.147 ± 0.014 mPa·s
same,mass density,"298.15 K, x1 = 0.0993",824.24 ± 1.6 kg/m3
same,viscosity,"298.15 K, x1 = 0.0993",1.49 ± 0.018 mPa·s
same,mass density,"298.15 K, x1 = 0.2003",846.98 ± 1.5 kg/m3
same,viscosity,"298.15 K, x1 = 0.2003",1.211 ± 0.015 mPa·s
same,mass density,"298.15 K, x1 = 0.3011",867.35 ± 1.3 kg/m3
same,viscosity,"298.15 K, x1 = 0.3011",1.037 ± 0.013 mPa·s
same,mass density,"303.15 K, x1 = 0.0993",819.57 ± 1.6 kg/m3
same,viscosity,"303.15 K, x1 = 0.0993",1.328 ± 0.016 mPa·s
same,mass density,"303.15 K, x1 = 0.2003",841.86 ± 1.5 kg/m3
same,viscosity,"303.15 K, x1 = 0.2003",1.089 ± 0.014 mPa·s
same,mass density,"303.15 K, x1 = 0.3011",861.83 ± 1.4 kg/m3
same,viscosity,"303.15 K, x1 = 0.3011",0.938 ± 0.012 mPa·s
same,mass density,"313.15 K, x1 = 0.0993",810.34 ± 1.7 kg/m3
same,viscosity,"313.15 K, x1 = 0.0993",1.073 ± 0.014 mPa·s
same,mass density,"313.15 K, x1 = 0.2003",832.49 ± 1.6 kg/m3
same,viscosity,"313.15 K, x1 = 0.2003",0.896 ± 0.012 mPa·s
same,mass density,"313.15 K, x1 = 0.3011",852.34 ± 1.4 kg/m3
same,viscosity,"313.15 K, x1 = 0.3011",0.783 ± 0.011 mPa·s
same,mass density,"323.15 K, x1 = 0.0993",798.04 ± 1.8 kg/m3
same,viscosity,"323.15 K, x1 = 0.0993",0.887 ± 0.012 mPa·s
same,mass density,"323.15 K, x1 = 0.2003",819.74 ± 1.6 kg/m3
same,viscosity,"323.15 K, x1 = 0.2003",0.751 ± 0.011 mPa·s
same,mass density,"323.15 K, x1 = 0.3011",839.43 ± 1.5 kg/m3
same,viscosity,"323.15 K, x1 = 0.3011",0.666 ± 0.01 mPa·s
same,mass density,"333.15 K, x1 = 0.0993",790.59 ± 1.8 kg/m3
same,viscosity,"333.15 K, x1 = 0.0993",0.739 ± 0.011 mPa·s
same,mass density,"333.15 K, x1 = 0.2003",811.83 ± 1.7 kg/m3
same,viscosity,"333.15 K, x1 = 0.2003",0.636 ± 0.01 mPa·s
same,mass density,"333.15 K, x1 = 0.3011",831 ± 1.6 kg/m3
same,viscosity,"333.15 K, x1 = 0.3011",0.572 ± 0.009 mPa·s
same,mass density,"343.15 K, x1 = 0.0993",778.86 ± 1.9 kg/m3
same,viscosity,"343.15 K, x1 = 0.0993",0.618 ± 0.01 mPa·s
same,mass density,"343.15 K, x1 = 0.2003",799.8 ± 1.8 kg/m3
same,viscosity,"343.15 K, x1 = 0.2003",0.542 ± 0.009 mPa·s
same,mass density,"343.15 K, x1 = 0.3011",818.79 ± 1.6 kg/m3
same,viscosity,"343.15 K, x1 = 0.3011",0.493 ± 0.009 mPa·s
same,mass density,"353.15 K, x1 = 0.0993",770.55 ± 1.9 kg/m3
same,viscosity,"353.15 K, x1 = 0.0993",0.524 ± 0.009 mPa·s
same,mass density,"353.15 K, x1 = 0.2003",790.85 ± 1.8 kg/m3
same,viscosity,"353.15 K, x1 = 0.2003",0.466 ± 0.009 mPa·s
same,mass density,"353.15 K, x1 = 0.3011",809.27 ± 1.7 kg/m3
same,viscosity,"353.15 K, x1 = 0.3011",0.43 ± 0.008 mPa·s
same,mass density,"363.15 K, x1 = 0.0993",761.19 ± 2 kg/m3
same,viscosity,"363.15 K, x1 = 0.0993",0.448 ± 0.008 mPa·s
same,mass density,"363.15 K, x1 = 0.2003",780.98 ± 1.9 kg/m3
same,viscosity,"363.15 K, x1 = 0.2003",0.405 ± 0.008 mPa·s
same,mass density,"363.15 K, x1 = 0.3011",799 ± 1.8 kg/m3
same,viscosity,"363.15 K, x1 = 0.3011",0.378 ± 0.008 mPa·s
